Our source for the EC50 values is US8741922B2, “Solid forms of N-(4-(7-azabicyclo[2.2,1]heptan-7-yl)-2-trifluoromethyl)phenyl)-4-oxo-5-(trifluoromethyl)-1,4-dihydroquinoline-3-carboxamide” (Vertex Pharmaceuticals Incorporated, priority 2009, dated 2014).

This assay deals with T1, ΔF508-CFTR (Homo sapiens, UniProt P13569, DEL508-508).
T1 construct: expressed in transfected cells
In words: Membrane potential optical assay for ΔF508-CFTR potentiation (FLIPR III, voltage sensing dyes). In kind it is cell-based. As to conditions: assay not explicitly tied to the value, ΔF508-CFTR NIH 3T3 cells. From the text:
Assays for Detecting and Measuring ΔF508-CFTR Potentiation Properties of Compounds
Membrane Potential Optical Methods for Assaying ΔF508-CFTR Modulation Properties of Compounds
The assay utilizes fluorescent voltage sensing dyes to measure changes in membrane potential using a fluorescent plate reader (e.g., FLIPR III, Molecular Devices, Inc.) as a readout for increase in functional ΔF508-CFTR in NIH 3T3 cells. The driving force for the response is the creation of a chloride ion gradient in conjunction with channel activation by a single liquid addition step after the cells have previously been treated with compounds and subsequently loaded with a voltage sensing dye.
To identify potentiators of ΔF508-CFTR, a double-addition HTS assay format was developed. This HTS assay utilizes fluorescent voltage sensing dyes to measure changes in membrane potential on the FLIPR III as a measurement for increase in gating (conductance) of ΔF508 CFTR in temperature-corrected ΔF508 CFTR NIH 3T3 cells. The driving force for the response is a Cl^− ion gradient in conjunction with channel activation with forskolin in a single liquid addition step using a fluorescent plate reader such as FLIPR III after the cells have previously been treated with potentiator compounds (or DMSO vehicle control) and subsequently loaded with a redistribution dye. […]

Some results are limits rather than exact numbers.

The term EC50 denotes the concentration that produces a half-maximal response.

T1 sequence (P13569 with tags, fused parts or gaps DEL508-508): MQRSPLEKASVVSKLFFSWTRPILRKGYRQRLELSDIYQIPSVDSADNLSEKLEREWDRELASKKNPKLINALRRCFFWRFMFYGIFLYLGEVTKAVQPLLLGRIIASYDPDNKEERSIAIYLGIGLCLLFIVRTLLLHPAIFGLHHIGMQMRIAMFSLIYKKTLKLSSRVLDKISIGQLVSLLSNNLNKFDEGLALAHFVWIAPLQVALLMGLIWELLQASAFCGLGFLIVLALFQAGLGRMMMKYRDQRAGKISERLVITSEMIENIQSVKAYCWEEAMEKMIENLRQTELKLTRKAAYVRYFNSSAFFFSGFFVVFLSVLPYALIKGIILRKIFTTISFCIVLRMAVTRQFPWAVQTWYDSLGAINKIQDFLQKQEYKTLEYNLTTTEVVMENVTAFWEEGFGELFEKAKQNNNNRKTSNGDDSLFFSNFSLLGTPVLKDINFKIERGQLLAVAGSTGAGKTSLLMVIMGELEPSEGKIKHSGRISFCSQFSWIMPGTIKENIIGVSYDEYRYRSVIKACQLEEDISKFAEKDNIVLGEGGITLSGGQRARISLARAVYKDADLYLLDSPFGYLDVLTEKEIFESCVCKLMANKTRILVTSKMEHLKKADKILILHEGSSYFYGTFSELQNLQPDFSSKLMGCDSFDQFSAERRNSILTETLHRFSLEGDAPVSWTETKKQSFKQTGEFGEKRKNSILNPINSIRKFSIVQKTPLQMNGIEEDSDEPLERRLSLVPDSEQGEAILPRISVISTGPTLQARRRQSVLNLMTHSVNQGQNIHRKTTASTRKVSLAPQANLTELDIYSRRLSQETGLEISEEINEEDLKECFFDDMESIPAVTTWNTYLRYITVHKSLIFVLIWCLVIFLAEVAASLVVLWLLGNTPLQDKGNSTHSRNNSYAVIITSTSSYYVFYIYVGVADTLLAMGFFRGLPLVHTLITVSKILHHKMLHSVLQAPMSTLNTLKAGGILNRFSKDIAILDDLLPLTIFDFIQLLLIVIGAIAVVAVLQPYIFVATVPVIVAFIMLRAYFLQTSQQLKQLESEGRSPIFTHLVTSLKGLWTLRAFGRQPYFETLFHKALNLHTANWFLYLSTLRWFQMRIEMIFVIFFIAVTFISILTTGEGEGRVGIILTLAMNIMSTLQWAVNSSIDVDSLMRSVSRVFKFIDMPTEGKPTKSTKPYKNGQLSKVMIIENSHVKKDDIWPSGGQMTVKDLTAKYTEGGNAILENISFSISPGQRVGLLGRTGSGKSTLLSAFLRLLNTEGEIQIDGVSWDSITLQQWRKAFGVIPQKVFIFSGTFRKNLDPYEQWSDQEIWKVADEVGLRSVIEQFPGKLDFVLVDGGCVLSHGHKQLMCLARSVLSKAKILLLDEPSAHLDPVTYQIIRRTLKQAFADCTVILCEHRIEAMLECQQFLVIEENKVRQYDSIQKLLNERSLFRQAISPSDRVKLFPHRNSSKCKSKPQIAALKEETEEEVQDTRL

As for `O=C(Nc1ccc(N2C3CCC2CC3)cc1C(F)(F)F)c1c[nH]c2cccc(C(F)(F)F)c2c1=O` [Compound I, Form A, N-(4-(7-azabicyclo[2.2.1]heptan-7-yl)-2-(trifluoromethyl)phenyl)-4-oxo-5-(trifluoromethyl)-1,4-dihydroquinoline-3-carboxamide], the concentration for a half-maximal effect (EC50) is under 2000 nM.
